According to US20110028566A1, “COMPOSITIONS AND PRODUCTS CONTAINING CYCLOALIPHATIC DIOL ANTIMICROBIAL AGENTS AND METHODS OF USING THE COMPOSITIONS AND PRODUCTS” (EASTMAN CHEMICAL COMPANY, priority 2009, published 2011):

Assays:
Assay in all cases: Microbial challenge testing in BPW
Format in all cases: cell-based
[1] = tested on: Aspergillus niger
Protocol: (§1) The microorganisms used in challenge tests are given in Table 3, designated as either ATCC (American Type Culture Collection) or wild type. These wild type organisms were problematic organisms previously isolated from chemical products. In the description for each organism, the bacteria are indicated as either GN (Gram negative) or GP (Gram positive).
(§2) All of the microorganisms were grown in Tryptose Soy Broth (TSB), DIFCO™ available from Becton, Dickinson and Company, containing 1% dextrose. Aspergillus niger and Candida albicans were incubated at 22° C.±2° C. for at least 96 hours. All bacteria were incubated at 35° C.±2° C. in a humidified incubator for at least 96 hours.
(§3) Aspergillus niger and Candida albicans were also grown on Sabouraud dextrose agar (SDA) at 22° C.±2° C. for 7 to 14 days or until full sporulation was achieved.
(§4) The following procedure was followed to determine the amount of each challenge material (inoculum broth) required to produce a 10^8 cfu/mL challenge, which is equivalent to a final test-sample microbial concentration of 10^5 to 10^6 cfu (colony-forming units)/mL.
(§5) Using a sterile serological pipette, 1 mL of the growth from each TSB culture was transferred into tubes containing 9 mL phosphate buffer (pH 7.2) and mixed thoroughly. This process was repeated to make serial 1:10 dilutions. Then 0.1 mL of each sample and dilution was inoculated onto agar plates to produce the equivalent of a further 1:10 dilution. C. albicans and A. niger were inoculated onto SDA and bacteria were inoculated onto Plate Count Agar (PCA), DIFCO™ available from Becton, Dickinson and Company. The 0.1 mL aliquots were evenly distributed on the plates using the spread-plate technique. The spread-plate technique is performed by spreading the aliquot over the entire plate surface using a sterile spreading rod while rotating the plate with a rotary auto-plater. After the inoculum was absorbed completely, each plate was inverted and incubated (fungi at 22° C.±2° C. and bacteria at 35° C.±2° C.).
(§6) After incubation for at least 48 hours, colonies that had developed on the agar plates were counted and recorded with the corresponding dilution. If counting had to be delayed temporarily, plates were refrigerated, preferably no more than 24 hours, until they could be counted. The number of cfu/mL was determined by multiplying the count by the dilution factor for that particular plate.
(§7) Turbidity in Nepholemetric Turbidity Units (NTU) was measured for each serial dilution using the HF-Micro 100 Model Turbidimeter. For each microorganism, the plate counts were compared to the turbidity readings.
Aspergillus niger cultures were harvested and spores dislodged from the SDA on which they were grown by rubbing the growth gently with a sterile inoculating loop. The spores were then mixed into the broth culture that had been incubated with a sterile magnetic stir bar to reduce pellicle formation. The spore-culture mixture was filtered repeatedly through sterile, non-absorbent cotton and harvested repeatedly, adjusting vegetative cells and spores to a level of 1.0×10^8. A hemocytometer was used to verify the final challenge concentration.
(§8) Control substrates (“broth alone”) were prepared for each microorganism separately in triplicate by adding 13.5 mL of BPW (pH 7.0) containing 1% (w/v) dextrose to each 20-mL glass tube; then adding 1.5 mL challenge material to produce a final concentration at time zero of 10^5 to 10^6 cfu/mL and a total volume of 15 mL.
(§9) Test sample substrates were prepared containing each test material (1,4-CHDM, etc) or combination of test materials at the concentrations shown in Tables 5 and 6.

[2] = tested on: Candida albicans
Protocol: as §1, §2, §3, §4, §5, §6, §7
On the day of challenge, the Candida albicans inoculum broth was poured through non-absorbent sterile gauze and centrifuged. The […] was then diluted with phosphate buffer (pH 7.2) until the desired turbidity was reached. Using a hemocytometer, a determination was made whether the challenge contained the desired concentration. Dilutions were made through 1.0×10^8 and three SDA spread plates were inoculated with 0.1 mL of each dilution.
as §8, §9

[3] = tested on: Aeromonas sp.
Protocol: as §1, §2, §4, §5, §6, §7, §8
(§10) Test sample substrates were prepared containing each test material (1,4-CHDM, etc) or combination of test materials at the concentrations shown in Tables 5 and 6. Sample substrates were prepared in triplicate, except those substrates containing PE or CG which were prepared in duplicate. Substrates were prepared by adding BPW containing 1% (w/v) dextrose to each 20-mL glass tube, then adding the test material in the amount appropriate to achieve the desired weight/volume percent (g/100 mL) and to obtain a total volume of BPW with dextrose and test material of 13.5 mL. Then 1.5 mL challenge material was added to produce a final concentration at time zero of 10^5 to 10^6 cfu/mL of the respective organism and a total test sample substrate volume of 15 mL.
(§11) After mixing, all challenged substrates were incubated at 35° C.±2° C. for 14 days and then at ambient room temperature.

[4] = tested on: Bacillus subtilis
Protocol: as §1, §2, §4, §5, §6, §7, §8, §10, §11

[5] = tested on: Burkholderia cepacia
Protocol: as §1, §2, §4, §5, §6, §7, §8, §10, §11

[6] = tested on: Escherichia coli; settings: 0.05%
Protocol: as §1, §2, §4, §5, §6, §7, §8, §10, §11

**Q.** `O=c1[nH]sc2ccccc12` [BIT, 1,2-benzisothiazolin-3-one] was tested. Which “Grade code A. niger” value ([1]; 0.05%, 3 days incubation) did it give?
**A.** 4

**Q.** And the “Grade code A. niger” value ([1]; 0.05%, 13 days incubation)?
**A.** 4

**Q.** What about the “Grade code A. niger” value ([1]; 0.05%, 30 days incubation) of the same compound?
**A.** 4

**Q.** And the “Grade code A. niger” value ([1]; 0.2%, 3 days incubation)?
**A.** 4

**Q.** What about the “Grade code A. niger” value ([1]; 0.2%, 13 days incubation) of the same compound?
**A.** 4

**Q.** What about the “Grade code A. niger” value ([1]; 0.2%, 30 days incubation) of the same compound?
**A.** 4

**Q.** And the “Grade code C. albicans” value ([2]; 0.05%, 3 days incubation)?
**A.** 4 (1001 to 10,000 colonies (thus 10,000 cfu/mL to 100,000 cfu/mL))

**Q.** What about the “Grade code C. albicans” value ([2]; 0.05%, 14 days incubation) of the same compound?
**A.** 4 (1001 to 10,000 colonies (thus 10,000 cfu/mL to 100,000 cfu/mL))

**Q.** And the “Grade code C. albicans” value ([2]; 0.05%, 30 days incubation)?
**A.** 4 (1001 to 10,000 colonies (thus 10,000 cfu/mL to 100,000 cfu/mL))

**Q.** And the “Grade code C. albicans” value ([2]; 0.2%, 3 days incubation)?
**A.** 4 (1001 to 10,000 colonies (thus 10,000 cfu/mL to 100,000 cfu/mL))

**Q.** What about the “Grade code C. albicans” value ([2]; 0.2%, 14 days incubation) of the same compound?
**A.** 3 (101 to 1000 colonies (thus 1000 to 10,000 cfu/mL))

**Q.** And the “Grade code C. albicans” value ([2]; 0.2%, 30 days incubation)?
**A.** 3 (101 to 1000 colonies (thus 1000 to 10,000 cfu/mL))

**Q.** And the “Grade code Aeromonas sp” value ([3]; 0.05%, 3 days incubation)?
**A.** 5 (More than 10,000 colonies estimated (thus >100,000 cfu/mL))

**Q.** And the “Grade code Aeromonas sp” value ([3]; 0.05%, 14 days incubation)?
**A.** 4 (1001 to 10,000 colonies (thus 10,000 cfu/mL to 100,000 cfu/mL))

**Q.** And the “Grade code Aeromonas sp” value ([3]; 0.05%, 30 days incubation)?
**A.** 4 (1001 to 10,000 colonies (thus 10,000 cfu/mL to 100,000 cfu/mL))

**Q.** And the “Grade code Aeromonas sp” value ([3]; 0.2%, 3 days incubation)?
**A.** 4 (1001 to 10,000 colonies (thus 10,000 cfu/mL to 100,000 cfu/mL))

**Q.** And the “Grade code Aeromonas sp” value ([3]; 0.2%, 14 days incubation)?
**A.** 2 (52 to 100 colonies counted (thus 520 to 1000 cfu/mL))

**Q.** And the “Grade code Aeromonas sp” value ([3]; 0.2%, 30 days incubation)?
**A.** 2 (52 to 100 colonies counted (thus 520 to 1000 cfu/mL))

**Q.** What about the “Grade code B. subtilis” value ([4]; 0.05%, 3 days incubation) of the same compound?
**A.** 4 (1001 to 10,000 colonies (thus 10,000 cfu/mL to 100,000 cfu/mL))

**Q.** What about the “Grade code B. subtilis” value ([4]; 0.05%, 14 days incubation) of the same compound?
**A.** 4 (1001 to 10,000 colonies (thus 10,000 cfu/mL to 100,000 cfu/mL))

**Q.** What about the “Grade code B. subtilis” value ([4]; 0.05%, 30 days incubation) of the same compound?
**A.** 4 (1001 to 10,000 colonies (thus 10,000 cfu/mL to 100,000 cfu/mL))

**Q.** And the “Grade code B. subtilis” value ([4]; 0.2%, 3 days incubation)?
**A.** 4 (1001 to 10,000 colonies (thus 10,000 cfu/mL to 100,000 cfu/mL))

**Q.** And the “Grade code B. subtilis” value ([4]; 0.2%, 14 days incubation)?
**A.** 4 (1001 to 10,000 colonies (thus 10,000 cfu/mL to 100,000 cfu/mL))

**Q.** And the “Grade code B. subtilis” value ([4]; 0.2%, 30 days incubation)?
**A.** 4 (1001 to 10,000 colonies (thus 10,000 cfu/mL to 100,000 cfu/mL))

**Q.** And the “Grade code B. cepacia” value ([5]; 0.05%, 3 days incubation)?
**A.** 4 (1001 to 10,000 colonies (thus 10,000 cfu/mL to 100,000 cfu/mL))

**Q.** What about the “Grade code B. cepacia” value ([5]; 0.05%, 14 days incubation) of the same compound?
**A.** 4 (1001 to 10,000 colonies (thus 10,000 cfu/mL to 100,000 cfu/mL))

**Q.** And the “Grade code B. cepacia” value ([5]; 0.05%, 30 days incubation)?
**A.** 4 (1001 to 10,000 colonies (thus 10,000 cfu/mL to 100,000 cfu/mL))

**Q.** And the “Grade code B. cepacia” value ([5]; 0.2%, 3 days incubation)?
**A.** 3 (101 to 1000 colonies (thus 1000 to 10,000 cfu/mL))

**Q.** What about the “Grade code B. cepacia” value ([5]; 0.2%, 14 days incubation) of the same compound?
**A.** 1 (1 to 51 colonies counted (thus 10 to 510 cfu/mL))

**Q.** And the “Grade code B. cepacia” value ([5]; 0.2%, 30 days incubation)?
**A.** 2 (52 to 100 colonies counted (thus 520 to 1000 cfu/mL))

**Q.** What about the “Grade code E. coli” value ([6]; 3 days incubation) of the same compound?
**A.** 4 (1001 to 10,000 colonies (thus 10,000 cfu/mL to 100,000 cfu/mL))

**Q.** What about the “Grade code E. coli” value ([6]; 14 days incubation) of the same compound?
**A.** 4 (1001 to 10,000 colonies (thus 10,000 cfu/mL to 100,000 cfu/mL))

**Q.** And the “Grade code E. coli” value ([6]; 30 days incubation)?
**A.** 4 (1001 to 10,000 colonies (thus 10,000 cfu/mL to 100,000 cfu/mL))
